Converted amounts (≈) assume the structure as drawn. The source made the active and inactive calls. The rule behind the calls is not given here.
Experiments:
Candida albicans [1] = experiment: Antifungal activity against FLC resistant Candida albicans 100 after 48 hrs in presence of fluconazol by checkerboard microdilution method; assay type: functional; settings: Candida albicans, 100, 48 h
Candida albicans [2] = experiment: microbe, parasite or virus in culture; assay type: functional; settings: Candida albicans, 100, 48 h
Description: Antifungal activity against FLC resistant Candida albicans 100 assessed as fluconazol MIC50 after 48 hrs by checkerboard microdilution method

Candida albicans [3] = experiment: microbe, parasite or virus in culture; assay type: functional; settings: Candida albicans, 0710922, 48 h
Description: Antifungal activity against FLC resistant Candida albicans 0710922 after 48 hrs by checkerboard microdilution method

Candida albicans [4] = experiment: Antifungal activity against FLC resistant Candida albicans 100 after 48 hrs by checkerboard microdilution method; assay type: functional; settings: Candida albicans, 100, 48 h
HEL [5] = experiment: Antiproliferative activity against human HEL cells after 48 hrs by CCK-8 assay; assay type: functional, cell-based
Candida albicans [6] = experiment: microbe, parasite or virus in culture; assay type: functional; settings: Candida albicans, 0304103, 48 h
Description: Antifungal activity against FLC resistant Candida albicans 0304103 assessed as fluconazol MIC50 after 48 hrs by checkerboard microdilution method

Candida albicans [7] = experiment: microbe, parasite or virus in culture; assay type: functional; settings: Candida albicans, 0304103, 48 h; remark: listed apart in the source
Description: Antifungal activity against FLC resistant Candida albicans 0304103 after 48 hrs by checkerboard microdilution method

Candida albicans [8] = experiment: Synergistic antifungal activity against FLC resistant Candida albicans 0710922 assessed as FIC index after 48 hrs by checkerboard microdilution method; assay type: functional
Histone deacetylase 1 = Histone deacetylase 1 (Homo sapiens, UniProt Q13547); experiment: Inhibition of full length human recombinant HDAC1 expressed in baculovirus expression system using (Ac-Leu-Gly-Lys(Ac)-AMC as substrate preincubated for 5 mins followed by substrate addition and measured after 30 mins by fluorescence assay
Sequence of Histone deacetylase 1 (Q13547 whole entry): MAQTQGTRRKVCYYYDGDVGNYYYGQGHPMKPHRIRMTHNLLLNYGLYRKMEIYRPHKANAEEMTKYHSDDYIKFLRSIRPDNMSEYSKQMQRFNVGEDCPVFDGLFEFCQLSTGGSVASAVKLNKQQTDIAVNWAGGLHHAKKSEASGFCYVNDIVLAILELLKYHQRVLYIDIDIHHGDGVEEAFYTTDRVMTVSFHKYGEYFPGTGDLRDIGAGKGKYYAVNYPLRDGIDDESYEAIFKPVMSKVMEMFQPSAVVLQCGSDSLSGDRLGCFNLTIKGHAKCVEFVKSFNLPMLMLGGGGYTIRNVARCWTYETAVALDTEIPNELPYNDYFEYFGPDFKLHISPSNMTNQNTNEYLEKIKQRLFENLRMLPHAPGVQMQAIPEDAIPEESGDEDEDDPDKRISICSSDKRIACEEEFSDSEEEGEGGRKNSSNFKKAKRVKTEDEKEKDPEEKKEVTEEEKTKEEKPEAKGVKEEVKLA

Candida albicans [9] = experiment: microbe, parasite or virus in culture; assay type: functional; settings: Candida albicans, 0304103, 48 h; remark: listed apart in the source
Description: Antifungal activity against FLC resistant Candida albicans 0304103 after 48 hrs in presence of fluconazol by checkerboard microdilution method

Candida albicans [10] = experiment: microbe, parasite or virus in culture; assay type: functional; settings: Candida albicans, 0710922, 48 h; remark: listed apart in the source
Description: Antifungal activity against FLC resistant Candida albicans 0710922 assessed as fluconazol MIC50 after 48 hrs by checkerboard microdilution method

Candida albicans [11] = experiment: Synergistic antifungal activity against FLC resistant Candida albicans 0304103 assessed as FIC index after 48 hrs by checkerboard microdilution method; assay type: functional
[12] = target: Tyrosine-protein kinase JAK2 (Homo sapiens, UniProt O60674); experiment: Inhibition of JAK2 (unknown origin) using FAM-labeled peptide as substrate preincubated for 10 mins followed by substrate addition and measured after 25 mins in presence of ATP
Sequence of Tyrosine-protein kinase JAK2 (O60674 whole entry): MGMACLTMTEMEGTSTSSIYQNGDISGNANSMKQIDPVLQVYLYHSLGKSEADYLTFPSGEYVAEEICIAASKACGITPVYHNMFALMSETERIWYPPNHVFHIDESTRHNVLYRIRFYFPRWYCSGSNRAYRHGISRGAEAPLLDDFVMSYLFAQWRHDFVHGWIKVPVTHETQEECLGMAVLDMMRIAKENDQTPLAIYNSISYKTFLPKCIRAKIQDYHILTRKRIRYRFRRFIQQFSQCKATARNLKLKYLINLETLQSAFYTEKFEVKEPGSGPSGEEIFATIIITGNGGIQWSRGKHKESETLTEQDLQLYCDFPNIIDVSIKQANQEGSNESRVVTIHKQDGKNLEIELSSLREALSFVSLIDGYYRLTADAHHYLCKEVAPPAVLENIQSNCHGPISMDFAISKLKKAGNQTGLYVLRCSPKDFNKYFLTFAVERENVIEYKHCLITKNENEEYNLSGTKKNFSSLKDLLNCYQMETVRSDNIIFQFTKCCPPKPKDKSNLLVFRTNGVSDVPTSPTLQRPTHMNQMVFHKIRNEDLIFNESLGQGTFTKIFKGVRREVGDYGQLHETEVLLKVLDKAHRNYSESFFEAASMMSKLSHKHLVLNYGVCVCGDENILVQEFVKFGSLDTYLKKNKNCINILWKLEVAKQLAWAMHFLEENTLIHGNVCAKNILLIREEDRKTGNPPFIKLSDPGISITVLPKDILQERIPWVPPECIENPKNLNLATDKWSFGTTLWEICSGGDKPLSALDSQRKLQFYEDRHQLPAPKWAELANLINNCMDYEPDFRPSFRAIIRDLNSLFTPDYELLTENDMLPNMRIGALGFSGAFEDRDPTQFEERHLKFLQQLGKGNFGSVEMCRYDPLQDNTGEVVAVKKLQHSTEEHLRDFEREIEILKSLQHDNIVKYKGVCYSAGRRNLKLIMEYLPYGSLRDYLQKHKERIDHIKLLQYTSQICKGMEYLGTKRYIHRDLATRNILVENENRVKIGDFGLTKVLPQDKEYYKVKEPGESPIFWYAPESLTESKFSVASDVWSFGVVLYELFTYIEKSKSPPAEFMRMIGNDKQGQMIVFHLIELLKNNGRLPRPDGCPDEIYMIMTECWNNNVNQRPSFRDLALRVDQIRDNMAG

K562 [13] = experiment: Antiproliferative activity against human K562 cells after 48 hrs by CCK-8 assay; assay type: functional, cell-based; settings: K562, 48 h
HL-60 [14] = experiment: Antiproliferative activity against human HL60 cells after 48 hrs by CCK-8 assay; assay type: functional, cell-based; settings: HL-60, 48 h
Candida albicans [15] = experiment: microbe, parasite or virus in culture; assay type: functional; settings: Candida albicans, 0710922, 48 h; remark: listed apart in the source
Description: Antifungal activity against FLC resistant Candida albicans 0710922 after 48 hrs in presence of fluconazol by checkerboard microdilution method

Candida albicans [16] = experiment: Synergistic antifungal activity against FLC resistant Candida albicans 100 assessed as FIC index after 48 hrs by checkerboard microdilution method; assay type: functional
Mus musculus [17] = experiment: In vivo antifungal activity against FLC resistant Candida albicans 0304103 infected in ICR mouse assessed as mouse survival at 5 mg/kg, ip qd up to 20 days (reference value: 4.5 day); assay type: functional, organism-based
HEL [18] = experiment: Antitumor activity against human HEL cells xenografted in BALB/C nude mouse assessed as tumor growth inhibition at 10 mg/kg, ip bid treated for 21 consecutive days relative to control; assay type: functional; settings: read-out: TGI
Mus musculus [19] = experiment: Protection against spleen enlargement in SCID mouse xenografted with human HEL cells at 10 mg/kg, ip qd; assay type: functional, organism-based
HEL [20] = experiment: Antiproliferative activity against human HEL cells after 48 hrs in presence of JAK2 inhibitor CYT-387 by CCK-8 assay; assay type: functional, cell-based
HL-60 [21] = experiment: Antiproliferative activity against human HL60 cells after 48 hrs in presence of JAK2 inhibitor CYT-387 by CCK-8 assay; assay type: functional, cell-based; settings: HL-60, 48 h
HEL [22] = experiment: Antitumor activity in human HEL cells xenografted in SCID mouse assessed as mouse survival time at 10 mg/kg, ip qd; assay type: functional
Mus musculus [23] = experiment: In vivo antifungal activity against FLC resistant Candida albicans 0304103 infected in ICR mouse assessed as mouse survival at 5 mg/kg, ip qd up to 20 days in co-treated with 1 mg/kg, ip qd fluconazol (reference value: 4.5 day); assay type: functional
K562 [24] = experiment: Antiproliferative activity against human K562 cells after 48 hrs in presence of JAK2 inhibitor CYT-387 by CCK-8 assay; assay type: functional, cell-based; settings: K562, 48 h

| Structure (SMILES) | MIC50 (Candida albicans [1]) [µg/mL] | MIC50 (Candida albicans [2]) [µg/mL] | MIC50 (Candida albicans [3]) [µg/mL] | MIC50 (Candida albicans [4]) [µg/mL] | IC50 (HEL [5]) [µM] | MIC50 (Candida albicans [6]) [µg/mL] | MIC50 (Candida albicans [7]) [µg/mL] | fractional inhibitory concentration index (FICI) (Candida albicans [8]) | IC50 (Histone deacetylase 1) [µM] | MIC50 (Candida albicans [9]) [µg/mL] | MIC50 (Candida albicans [10]) [µg/mL] | fractional inhibitory concentration index (FICI) (Candida albicans [11]) | IC50 [12] [µM] | IC50 (K562 [13]) [µM] | IC50 (HL-60 [14]) [µM] | MIC50 (Candida albicans [15]) [µg/mL] | fractional inhibitory concentration index (FICI) (Candida albicans [16]) | further results |
| --- | --- | --- | --- | --- | --- | --- | --- | --- | --- | --- | --- | --- | --- | --- | --- | --- | --- | --- |
| N#CCNC(=O)c1ccc(-c2ccnc(Nc3ccc(N4CCC(C(=O)NO)CC4)cc3)n2)cc1 | 2 | 0.5 (≈ 1.06 µM) | > 64 | > 64 | > 50 | 0.25 (≈ 0.53 µM) | > 64 | 1.02 | 2.7 | 8 (≈ 17 µM) | 1 (≈ 2.12 µM) | 0.13 | 0.004 | > 50 | > 50 | 64 (≈ 136 µM) | 0.039 |  |
| CS(=O)(=O)Nc1ccc(-c2ccnc(Nc3ccc(N4CCC(C(=O)NO)CC4)cc3)n2)cc1 | 8 | 1 (≈ 2.07 µM) | > 64 | > 64 | > 50 | 0.5 (≈ 1.04 µM) | > 64 | 0.51 | 2.9 | 4 (≈ 8.29 µM) | 0.25 (≈ 0.518 µM) | 0.07 | 0.001 | 18 | > 50 | 32 (≈ 66.3 µM) | 0.14 |  |
| CS(=O)(=O)Nc1ccc(-c2ccnc(Nc3ccc(N4CCC(C(=O)NCCCC(=O)NO)CC4)cc3)n2)cc1 | 8 | 1 (≈ 1.76 µM) | > 64 | > 64 | 12 | 4 (≈ 7.05 µM) | 32 (≈ 56.4 µM) | 0.51 | 9.2 | 8 (≈ 14.1 µM) | 0.5 (≈ 0.881 µM) | 0.31 | 0.001 | 12 | > 50 | 32 (≈ 56.4 µM) | 0.14 |  |
| CS(=O)(=O)Nc1ccc(-c2ccnc(Nc3ccc(N4CCC(C(=O)NCCCCCCC(=O)NO)CC4)cc3)n2)cc1 | 8 | 0.25 (≈ 0.41 µM) | > 64 | > 64 | 3.9 | 0.5 (≈ 0.82 µM) | > 64 | 0.5 | 0.25 | 8 (≈ 13.1 µM) | 0.25 (≈ 0.41 µM) | 0.13 | 0.002 | 8.9 | 12 | 32 (≈ 52.5 µM) | 0.13 |  |
| CS(=O)(=O)Nc1ccc(-c2ccnc(Nc3ccc(N4CCC(C(=O)Nc5ccc(C(=O)NO)cc5)CC4)cc3)n2)cc1 | 64 | 16 (≈ 26.6 µM) | > 64 | > 64 | 2 | > 64 | > 64 | >2 | 0.38 | > 64 | > 64 | >2 | 0.002 | 8.6 | 11 | > 64 | 1.25 |  |
| CS(=O)(=O)Nc1ccc(-c2ccnc(Nc3ccc(N4CCC(C(=O)NCc5ccc(C(=O)NO)cc5)CC4)cc3)n2)cc1 | 4 | 1 (≈ 1.62 µM) | > 64 | > 64 | 6.3 | 2 (≈ 3.25 µM) | > 64 | 1.01 | 1.1 | 8 (≈ 13 µM) | 0.5 (≈ 0.812 µM) | 0.15 | 0.018 | 10 | > 50 | 64 (≈ 104 µM) | 0.078 |  |
| CS(=O)(=O)Nc1ccc(-c2ccnc(Nc3ccc(N4CCC(C(=O)NCCCCC(=O)NO)CC4)cc3)n2)cc1 | 16 | 0.5 (≈ 0.86 µM) | > 64 | > 64 | 8.1 | 0.5 (≈ 0.86 µM) | 32 (≈ 55 µM) | 0.51 | 2.2 | 16 (≈ 27.5 µM) | 0.5 (≈ 0.86 µM) | 0.5 | 0.001 | 11 | > 50 | 32 (≈ 55 µM) | 0.26 |  |
| Nc1cc(F)ccc1NC(=O)/C=C/c1cnn(C/C=C/c2ccccc2)c1 |  |  | > 64 | > 64 | 21.7 to 33.6 |  | > 64 |  |  |  |  |  |  | 21.7 to 33.6 | 21.7 to 33.6 |  |  | Activity (Mus musculus [17]): inactive; inhibition in vivo at 10 mg/kg (HEL [18]): 16.4%; Activity (Mus musculus [19]): inactive; IC50 (HEL [20]): 1.64 to 4.19 µM; IC50 (HL-60 [21]): 1.64 to 4.19 µM; Activity (HEL [22]): inactive; MST (Mus musculus [23]): 5 days; IC50 (K562 [24]): 1.64 to 4.19 µM |
| Nc1ccccc1NC(=O)c1ccc(-c2ccnc(Nc3ccc(N4CCOCC4)cc3)n2)cc1 | 64 | 0.5 (≈ 1.07 µM) | > 64 | > 64 | > 50 | > 64 | > 64 | >2 | > 50 | > 64 | > 64 | >2 | 0.11 | > 50 | > 50 | > 64 | 1.01 |  |
| N#CCNC(=O)c1ccc(-c2ccnc(Nc3ccc(N4CCC(C(=O)Nc5ccc(/C=C/C(=O)NO)cc5)CC4)cc3)n2)cc1 | 64 | 1 (≈ 1.62 µM) | > 64 | > 64 | > 50 | 1 (≈ 1.62 µM) | > 64 | 0.31 | 5.1 | 4 (≈ 6.49 µM) | 2 (≈ 3.24 µM) | 0.078 | 0.015 | > 50 | > 50 | 16 (≈ 25.9 µM) | 1.02 |  |
| N#CCNC(=O)c1ccc(-c2ccnc(Nc3ccc(N4CCC(C(=O)Nc5ccccc5N)CC4)cc3)n2)cc1 | > 64 | > 64 | > 64 | > 64 | 6.6 | > 64 | > 64 | 2 | 1.7 | > 64 | 64 (≈ 117 µM) | >2 | 0.008 | > 50 | > 50 | 64 (≈ 117 µM) | >2 |  |
| CS(=O)(=O)Nc1ccc(-c2ccnc(Nc3ccc(N4CCC(C(=O)Nc5ccccc5N)CC4)cc3)n2)cc1 | 64 | 64 (≈ 115 µM) | > 64 | > 64 | 3.2 | > 64 | > 64 | >2 | 2.1 | > 64 | > 64 | >2 | 0.002 | 9.5 | 16 | > 64 | 2 |  |
| N#CCNC(=O)c1ccc(-c2ccnc(Nc3ccc(N4CCC(C(=O)Nc5ccc(C(=O)NO)cc5)CC4)cc3)n2)cc1 | 64 | 2 (≈ 3.39 µM) | > 64 | > 64 | > 50 | 0.5 (≈ 0.847 µM) | > 64 | >2 | 24 | 64 (≈ 108 µM) | > 64 | 1.01 | 0.016 | > 50 | > 50 | > 64 | 1.03 |  |
| CS(=O)(=O)Nc1ccc(-c2ccnc(Nc3ccc(N4CCC(C(=O)NCCCCCC(=O)NO)CC4)cc3)n2)cc1 | 16 | 0.25 (≈ 0.42 µM) | > 64 | 32 | 17 | 0.5 (≈ 0.839 µM) | 32 (≈ 53.7 µM) | 2 | 0.35 | 16 (≈ 26.9 µM) | 64 (≈ 107 µM) | 0.5 | 0.003 | 10 | 37 | 64 (≈ 107 µM) | 0.5 |  |

— ChEMBL document CHEMBL4145634, “Discovery of Janus Kinase 2 (JAK2) and Histone Deacetylase (HDAC) Dual Inhibitors as a Novel Strategy for the Combinational Treatment of Leukemia and Invasive Fungal Infections” (J Med Chem, 2018)
